Reference: PubChem BioAssay AID1963834 (Molecular Pharmacology Branch, DTP, NCI, 2024)

Test system: 873145-292-R-J1-PDC complex spheroid viability
Assay: Anticancer human tumor 873145-292-R-J1-PDC patient-derived renal clear cell carcinoma cell line growth inhibition [POLQ]
Details: for IC50: curve of first compound; for viability, T/C: stronger effect = lower value
Procedure: Multicellular complex tumor spheroid response to Polymerase (POL) inhibitors (novobiocin, ART-558, RP6685) in combination with a variety of drugs and investigational agents in selected tumor cell lines
The POL inhibitors (novobiocin, ART-558, and RP6685) were evaluated both individually and in combination with standard of care and investigational anticancer small molecules within a complex spheroid model of solid tumors. . Complex spheroids include a stromal component modeled by human endothelial cells (HUVEC) and fibroblasts modeled by human mesenchymal stem cells (MSCs). The concentration ranges selected for each drug and investigational agent were based upon clinically achievable concentrations if the clinical Cmax of the agent was known.
Compounds. The drugs and investigational agents: novobiocin (NSC847541), ART-558 (NSC835418), RP-6685 (NSC848927), peposertib (NSC802822), ceralasertib (NSC780249), elimusertib (NSC800525), camonsertib (NSC841442), AZD-1390 (NSC803789), olaparib (NSC753686), talazoparib (NSC767125), rucaparib (NSC756644), sotorasib (NSC818433), MRTX-1133 (NSC836407), SN-38 (NSC673596), topotecan (NSC609699), epotoside (NSC141540), doxorubicin (NSC123127), gemcitabine (NSC613327), 5-fluorouracil (NSC19893), paclitaxel (NSC125973), vemurafenib (NSC761431), MSA-2 (NSC828583), SN-011 (NSC837082), adavosertib (NSC754352), prexasertib (NSC758257), carboplatin (NSC241240) and oxaliplatin (NSC266046), were obtained from the National Cancer Institute (NCI) Developmental Therapeutics Program Chemical Repository (21). The FDA-approved anticancer drug set is available from the Developmental Therapeutics Program at https://dtp.cancer.gov/organization/dscb/obtaining/. […] The stock solutions were prepared in dimethyl sulfoxide (DMSO, Sigma-Aldrich, St. Louis, MO, cat. D2650), except for the platinum compounds which were prepared in saline (Quality Biological, Gaithersburg, MD, cat. 114-055-101), at 800-fold the tested concentration and stored at -70 degrees C prior to their use. All drugs and investigational agents were tested over a range starting from a high concentration at or near the clinical Cmax and decreasing in half-log increments. If the clinical Cmax for an agent had not been determined, the highest concentration tested was 10 microM, except for SN-38, which was tested at a high concentration of 1 microM.
Cell Culture. All cells were maintained in an incubator at 37 degrees C and 5% CO2 with 95% humidity. The PDC lines were cultured according to standard operating procedures established by the NCI PDMR (https://pdmr.cancer.gov). Table 3 of the manuscript, lists the cell lines along with the number of the three cell types plated to form the mct-spheroids and media for tumor cell growth. After thawing, all PDC lines, except 997537-175-T-J1-PDC and 415267-285-R-J2-PDC, were cultured in Matrigel-coated flasks prepared with a working solution of 1X Ham's F-12 nutrient mix, without supplementation (Thermo Fisher Scientific, cat. 11765054), 100 U/mL penicillin-streptomycin (Thermo Fisher Scientific, cat. 15140122), and 2.5% Matrigel (Corning Inc., Corning, NY, cat. 354248) for the first three passages. The two PDC lines 997537-175-T-J1-PDC and 415267-285-R-J2-PDC were cultured on uncoated flasks. The 857933-349-R-J2-PDC line was cultured in 6C/Colon 1B media containing advanced DMEM/F-12 (Thermo Fisher Scientific, cat. 12634028), 10 mM HEPES (Thermo Fisher Scientific, cat. 15630080), 1X GlutaMAX supplement (Thermo Fisher Scientific, cat. 35050061), 0.1 mg/mL primocin (InvivoGen, San Diego, CA, cat. ant-pm-2), 10% defined fetal bovine serum, heat inactivated (HyClone Laboratories Inc., Logan, UT, cat. SH30070.03HI), 50% L-WRN conditioned media (ATCC, cat. CRL-3276), 1.25 mM N-Acetyl-L-cysteine (Sigma-Aldrich, cat. A9165), 10 mM nicotinamide (Sigma-Aldrich, cat. N0636), 1X B-27 supplement (Thermo Fisher Scientific, cat. 17504044), 1X N-2 supplement (Thermo Fisher Scientific, cat. […]

[1] = second compound 0.0316 µM, first compound 0.0316 µM
[2] = second compound 0.0316 µM, first compound 0.1 µM
[3] = second compound 0.0316 µM, first compound 0.316 µM
[4] = second compound 0.0316 µM, first compound 1 µM
[5] = second compound 0.0316 µM, first compound 3.16 µM
[6] = second compound 0.0316 µM, first compound 10 µM
[7] = second compound 0.1 µM, first compound 0.0316 µM
[8] = second compound 0.1 µM, first compound 0.1 µM
[9] = second compound 0.1 µM, first compound 0.316 µM
[10] = second compound 0.1 µM, first compound 1 µM
[11] = second compound 0.1 µM, first compound 3.16 µM
[12] = second compound 0.1 µM, first compound 10 µM
[13] = second compound 0.316 µM, first compound 0.0316 µM
[14] = second compound 0.316 µM, first compound 0.1 µM
[15] = second compound 0.316 µM, first compound 0.316 µM
[16] = second compound 0.316 µM, first compound 1 µM
[17] = second compound 0.316 µM, first compound 3.16 µM
[18] = second compound 0.316 µM, first compound 10 µM
[19] = second compound 1 µM, first compound 0.0316 µM
[20] = second compound 1 µM, first compound 0.1 µM
[21] = second compound 1 µM, first compound 0.316 µM
[22] = second compound 1 µM, first compound 1 µM
[23] = second compound 1 µM, first compound 3.16 µM
[24] = second compound 1 µM, first compound 10 µM
[25] = second compound 3.16 µM, first compound 0.0316 µM
[26] = second compound 3.16 µM, first compound 0.1 µM
[27] = second compound 3.16 µM, first compound 0.316 µM
[28] = second compound 3.16 µM, first compound 1 µM
[29] = second compound 3.16 µM, first compound 3.16 µM
[30] = second compound 3.16 µM, first compound 10 µM
[31] = second compound 10 µM, first compound 0.0316 µM
[32] = second compound 10 µM, first compound 0.1 µM
[33] = second compound 10 µM, first compound 0.316 µM
[34] = second compound 10 µM, first compound 1 µM
[35] = second compound 10 µM, first compound 3.16 µM
[36] = second compound 10 µM, first compound 10 µM
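Also: spheroids exposed to compounds for 7 days before viability readout.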
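For viability, T/C in this document: luminescence signal used as surrogate for viable cell content; 100% = DMSO vehicle control viability.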

`COc1cc2cc(C(=O)CCC(=O)O)sc2cc1OC` + Nc1ccc(C#CCN(C(=O)Cc2ncc(C(F)(F)F)cc2C(F)(F)F)c2ccc(F)cc2)nn1 was tested, and the IC50 (second compound 0.0316 µM) was over 10 µM, the IC50 (second compound 0.1 µM) was over 10 µM and the IC50 (second compound 0.316 µM) was over 10 µM. For the same compound, the IC50 (second compound 1 µM) was over 10 µM, the IC50 (second compound 3.16 µM) was over 10 µM and the IC50 (second compound 10 µM) was over 10 µM. The viability, T/C [1] was 94.6%, the viability, T/C [2] was 116% and the viability, T/C [3] was 95.8%. The viability, T/C [4] was 97.8%, the viability, T/C [5] was 104% and the viability, T/C [6] was 102%. It also gave a viability, T/C [7] of 106%, a viability, T/C [8] of 115% and a viability, T/C [9] of 92.3%. It also gave a viability, T/C [10] of 107%, a viability, T/C [11] of 121% and a viability, T/C [12] of 91.5%. For the same compound, the viability, T/C [13] was 104%, the viability, T/C [14] was 116% and the viability, T/C [15] was 96.8%. The viability, T/C [16] was 99.3%, the viability, T/C [17] was 97.2% and the viability, T/C [18] was 89.8%. For the same compound, the viability, T/C [19] was 104%, the viability, T/C [20] was 105% and the viability, T/C [21] was 112%. The viability, T/C [22] was 105%, the viability, T/C [23] was 104% and the viability, T/C [24] was 92.5%. For the same compound, the viability, T/C [25] was 112%, the viability, T/C [26] was 104% and the viability, T/C [27] was 91.8%. For the same compound, the viability, T/C [28] was 106%, the viability, T/C [29] was 103% and the viability, T/C [30] was 103%. It also gave a viability, T/C [31] of 113%, a viability, T/C [32] of 105% and a viability, T/C [33] of 119%. The viability, T/C [34] was 110%, the viability, T/C [35] was 103% and the viability, T/C [36] was 105%.
With `Nc1ccn(C2OC(CO)C(O)C2(F)F)c(=O)n1` (centres undefined) + Nc1ccc(C#CCN(C(=O)Cc2ncc(C(F)(F)F)cc2C(F)(F)F)c2ccc(F)cc2)nn1 the IC50 (second compound 0.0316 µM) was over 10 µM, the IC50 (second compound 0.1 µM) was over 10 µM and the IC50 (second compound 0.316 µM) was 10 µM. The IC50 (second compound 1 µM) was over 10 µM, the IC50 (second compound 3.16 µM) was over 10 µM and the IC50 (second compound 10 µM) was over 10 µM. For the same compound, the viability, T/C [1] was 70.6%, the viability, T/C [2] was 72.4% and the viability, T/C [3] was 61%. The viability, T/C [4] was 56.2%, the viability, T/C [5] was 58.5% and the viability, T/C [6] was 55.8%. The viability, T/C [7] was 71.6%, the viability, T/C [8] was 70.2% and the viability, T/C [9] was 57.3%. It also gave a viability, T/C [10] of 54.5%, a viability, T/C [11] of 49.5% and a viability, T/C [12] of 51.7%. The viability, T/C [13] was 73.8%, the viability, T/C [14] was 80.5% and the viability, T/C [15] was 52.6%. For the same compound, the viability, T/C [16] was 54.8%, the viability, T/C [17] was 59.1% and the viability, T/C [18] was 53.4%. It also gave a viability, T/C [19] of 67.7%, a viability, T/C [20] of 65.8% and a viability, T/C [21] of 61.8%. The viability, T/C [22] was 70.3%, the viability, T/C [23] was 55.6% and the viability, T/C [24] was 51.7%. It also gave a viability, T/C [25] of 72.9%, a viability, T/C [26] of 66.6% and a viability, T/C [27] of 73.7%. It also gave a viability, T/C [28] of 64.2%, a viability, T/C [29] of 54.5% and a viability, T/C [30] of 63%. For the same compound, the viability, T/C [31] was 82.7%, the viability, T/C [32] was 67.6% and the viability, T/C [33] was 61.4%. The viability, T/C [34] was 62.1%, the viability, T/C [35] was 59.4% and the viability, T/C [36] was 67.2%.
